From EP0863769B1 (priority 1996, dated 1998) come the findings set out here.

For the assay, the target named is A/England/12/64. The assay is classed as binding, Influenza Viren. Conditions: read-out: Affinität der Bindung an Virus, Kaff.

“Poly-N-(2-Hydroxyethyl)-acrylamid mit 20% mol. 6SLN [6SLN-PAA]”: the Kd stood at 0.1 µM.
